From US20150203561A1, “BETA THYMOSIN FRAGMENTS” (REGENERX BIOPHARMACEUTICALS, INC., priority 2008, published 2015)

Assays:
human dermal fibroblasts [1] = assay: Collagen secretion, colorimetric assay; type: cell-based; set-up: key to Stimulates collagens / Inhibits collagens: P = active; U = useful; conditions: summary of peptide uses
Description: (§1) Effect of Tb4 and peptides on collagen secretion • Human dermal fibroblasts (Fb) were cultured to 80% confluence • Cells were treated with 1 μg/ml Tb4 or peptides for 24, 48, or 72 hours. Cells were treated once/day. • Culture supernatants (n=3, experiments repeated 5 times) were assayed for collagen secretion using a colorimetric assay that detects collagen types I, II, III, IV and V, and possibly VII

IKKb = target: T1, IKKb (Homo sapiens, UniProt O14920); assay: Cell-free IkBa phosphorylation ELISA (NFkB signaling pathway); type: biochemical; set-up: key to Inhibits IkBa phosphorylation: P = active; U = useful; conditions: for Inhibits IkBa phosphorylation: summary of peptide uses
T1 sequence (O14920 1-756): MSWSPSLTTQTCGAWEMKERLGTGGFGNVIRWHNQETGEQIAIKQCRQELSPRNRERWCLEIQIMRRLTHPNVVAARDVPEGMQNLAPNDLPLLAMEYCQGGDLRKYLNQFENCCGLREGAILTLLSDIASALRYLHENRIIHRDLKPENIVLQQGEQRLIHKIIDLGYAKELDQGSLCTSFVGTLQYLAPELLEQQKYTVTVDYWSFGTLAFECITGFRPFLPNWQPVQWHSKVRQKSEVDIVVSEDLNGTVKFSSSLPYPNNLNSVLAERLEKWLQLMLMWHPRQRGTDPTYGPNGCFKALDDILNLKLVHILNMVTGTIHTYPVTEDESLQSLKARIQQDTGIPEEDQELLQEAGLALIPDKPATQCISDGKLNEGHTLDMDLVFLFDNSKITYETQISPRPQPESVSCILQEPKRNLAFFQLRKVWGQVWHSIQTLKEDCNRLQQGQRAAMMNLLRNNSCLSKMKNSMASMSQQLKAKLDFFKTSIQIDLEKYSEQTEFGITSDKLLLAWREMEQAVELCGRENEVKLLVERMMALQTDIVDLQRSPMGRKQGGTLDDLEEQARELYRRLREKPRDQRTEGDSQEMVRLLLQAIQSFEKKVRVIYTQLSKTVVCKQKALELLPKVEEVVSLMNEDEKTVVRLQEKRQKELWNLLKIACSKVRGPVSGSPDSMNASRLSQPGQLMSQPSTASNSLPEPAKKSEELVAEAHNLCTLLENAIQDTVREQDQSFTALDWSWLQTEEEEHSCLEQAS
Description: Effect of Tb4 and peptides on the NFkB signaling pathway • Cell-free assay • Prepared 1.0, 0.1, and 0.01 ng/ml solutions of Tb4 or peptides in kinase buffer supplied with kit • Added 10 μl of the solutions to wells of a 96-well plate coated with lkBa • IKKb (20 mU) was added to wells • 90 μl kinase reaction buffer (containing ATP) was added to the wells • ELISA to detect phosphorylated lkBa

neurite outgrowth = assay: Promotion of neurite outgrowth (summary table); set-up: key: P = active; U = useful; conditions: summary of peptide uses
neuron survival = assay: Promotion of neuron survival (summary table); set-up: key: P = active; U = useful; conditions: summary of peptide uses
L1 = assay: Stimulation of L1 production (summary table); set-up: key: P = active; U = useful; conditions: summary of peptide uses
[2] = tested on: tissue damage caused by UV radiation; assay: UV radiation tissue damage (summary table); set-up: key: P = active; U = useful; conditions: summary of peptide uses
human dermal fibroblasts [3] = assay: Elastin secretion, colorimetric assay; type: cell-based; set-up: key to Stimulates Elastin: P = active; U = useful; conditions: for Stimulates Elastin: summary of peptide uses
Description: as §1, with “elastin” for “collagen”, “6” for “5”, “• Data was analyzed using the t-test” for “that detects collagen types I, II, III, IV and V, and possibly VII”

T-lymphocyte = assay: Impaired T-lymphocyte blastogenic response (summary table); set-up: key: P = active; U = useful; conditions: summary of peptide uses
dermal Fb = assay: TNF-a-stimulated IL-8 secretion ELISA, dermal fibroblasts; type: cell-based, human; conditions: 1 μg/ml, 10 ng/ml TNF-a
Description: (§2) Analysis of IL-8 Secretion • Human corneal epithelial cells or dermal Fb were cultured to 80% confluence • Cells were pre-treated with 1 μg/ml Tb4 or peptides for one hour • Cells were stimulated with 10 ng/ml TNF-a in the presence or absence of Tb4 or peptides • Culture medium was analyzed for secreted IL-8 by ELISA (n=3, experiments repeated twice) • Data was analyzed using the t-test

[4] = tested on: TNF-a-stimulated IL8 secretion; assay: Suppression of inflammation (summary table; IL-8 secretion); type: cell-based, human; set-up: key: P = active; U = useful; conditions: summary of peptide uses
Description: as §2

cell migration = assay: Stimulation of migration (summary table); type: cell-based; set-up: key: P = active; U = useful; conditions: summary of peptide uses
[5] = tested on: Transformed human corneal epithelial cells (HCET); assay: Collagen type IV secretion ELISA; type: cell-based; set-up: key to Stimulates collagen IV: P = active; U = useful; conditions: for Collagen type IV secretion: corneal epithelial cells, 1 μg/ml, 24 hours; for Stimulates collagen IV: summary of peptide uses
Description: Effect of Tb4 and peptides on collagen type IV secretion • Transformed human corneal epithelial cells (HCET) were cultured to 80% confluence • Cells were treated with 1 μg/ml Tb4 or peptides for 24 hours • Culture supernatant samples (n=3 per experiment, total of 4 experiments) were analyzed using a collagen type IV ELISA • Data was analyzed using the t-test

[6] = tested on: p65 subunit of NFkB in human corneal epithelial cells; assay: NFkB nuclear translocation; type: cell-based; set-up: key: P = active; U = useful; conditions: summary of peptide uses
Description: Analysis of NFkB Nuclear Translocation • Human corneal epithelial cells were cultured to 80% confluence • Cells were pre-treated with 1 μg/ml Tb4 or peptide 4A or 6A for one hour • Cells were stimulated with 10 ng/ml TNF-a in the presence or absence of Tb4 or peptides for 15 minutes • Cells were fixed and labeled with antibodies to the p65 subunit of NFkB

human dermal fibroblasts [7] = assay: LDH cytotoxicity assay in human dermal fibroblasts exposed to cytotoxic agents; type: cell-based; set-up: key to Protects from cytotoxicity: P = active; U = useful; conditions: summary of peptide uses
Description: Dose Response Analysis of Peptide 3A • Human dermal fibroblasts (Fb, Cascade Biologics, OR) were cultured to 80% confluence • 2 ml CHX (0.002%) in basal medium ±1 μg/ml Tb4 or 1.0, 0.1, 0.01, or 0.001 μg/ml peptide 3A was added to Fb for 1, 2, 3, or 4 hours • 100 μl culture medium (n=4) was added to 100 μl LDH reagent and incubated at room temperature for 20 minutes • OD500 nm was read and averages ±SEM were calculated • Data was analyzed with probability of p≦0.05

human dermal Fb = assay: CHX-induced apoptosis (APOPercentage dye) in human dermal Fb; type: cell-based; set-up: key to Inhibits apoptosis: P = active; U = useful; conditions: summary of peptide uses
Description: Effect of Tb4 and Peptide 3A on CHX-induced apoptosis • Human dermal Fb were cultured to 80% confluence • Fb were treated with 0.002% CHX+1 μg/ml Tb4 or peptide 3A, 4A or 6A for 1.5 hours • APOPercentage “dye” was added to the Fb cultures at a 1:50 dilution for an additional 30 minutes • Excess dye was washed from the cells, and digital images were captured. Cells dyed red were apoptotic • Adobe Photoshop was used to calculate the number of red pixels in six digitized images for each treatment • Statistical analysis was done using the t-test

Q: How did the Inhibits collagens (human dermal fibroblasts [1]) turn out when “Ac-Ile-Glu-Gln-Glu-Lys-Gln-Ala-Gly-Glu-Ser-OH (Ac-IEQEKQAGES-OH) [Peptide 6B]” was run?
A: P

Q: What about the “Inhibition of IkBa phosphorylation (NFkB signaling pathway)” value (IKKb; cell-free, 1.0, 0.1, and 0.01 ng/ml) of the same substance?
A: may have an effect

Q: And the “Inhibits IkBa phosphorylation” value (IKKb)?
A: P

Q: What about the Promotes neurite outgrowth (neurite outgrowth) of the same substance?
A: U

Q: What about the Promotes neuron survival (neuron survival) of the same substance?
A: U

Q: And the “Stimulates L1 production” value (L1)?
A: U

Q: What about the “Inhibits tissue damage caused by UV radiation” value (from here on “Inhibits tissue damage caused”) [2] of the same substance?
A: U

Q: And the “Protects tissue from UV radiation damage” value [2]?
A: U

Q: With “Ac-Leu-Lys-Lys-Thr-Glu-Thr-Gln-Glu-Lys-Asn-Pro-Leu-Pro-Ser-Lys-Glu-Thr-Ile-Glu-Gln-Glu-Lys-Gln-Ala-Gly-Glu-Ser-OH (Ac-LKKTETQEKNPLPSKETIEQEKQAGES-OH) [Fragment Db]” as the substance, how does the Inhibits collagens (human dermal fibroblasts [1]) read?
A: U

Q: What about the “Stimulates Elastin” value (human dermal fibroblasts [3]) of the same substance?
A: U

Q: And the “Inhibits IkBa phosphorylation” value (IKKb)?
A: U

Q: What about the Promotes neurite outgrowth (neurite outgrowth) of the same substance?
A: U

Q: What about the Promotes neuron survival (neuron survival) of the same substance?
A: U

Q: And the “Stimulates L1 production” value (L1)?
A: U

Q: And the “Inhibits tissue damage caused” value [2]?
A: U

Q: And the “Protects tissue from UV radiation damage” value [2]?
A: U

Q: And the “Restores impaired T-lymphocyte blastogenic response” value (T-lymphocyte)?
A: U

Q: “Ac-Ser-Asp-Lys-Pro-OH (Ac-SDKP-OH) [Peptide 2B]” was tested. Which “Suppression of TNF-a-stimulated IL8 secretion” value (dermal Fb) did it give?
A: suppress

Q: And the Suppresses inflammation [4]?
A: P

Q: What about the “Stimulates Migration” value (cell migration) of the same substance?
A: P

Q: What about the Promotes neurite outgrowth (neurite outgrowth) of the same substance?
A: U

Q: And the Promotes neuron survival (neuron survival)?
A: U

Q: What about the “Stimulates L1 production” value (L1) of the same substance?
A: U

Q: What about the “Inhibits tissue damage caused” value [2] of the same substance?
A: U

Q: What about the “Protects tissue from UV radiation damage” value [2] of the same substance?
A: U

Q: Which Inhibits collagens (human dermal fibroblasts [1]) does the source give for “H-Leu-Lys-Lys-Thr-Glu-Thr-Gln-Glu-Lys-Asn-Pro-Leu-Pro-Ser-Lys-Glu-Thr-Ile-Glu-Gln-Glu-Lys-Gln-Ala-Gly-Glu-Ser-OH (H-LKKTETQEKNPLPSKETIEQEKQAGES-OH) [Fragment Da]” here?
A: U

Q: And the “Stimulates Elastin” value (human dermal fibroblasts [3])?
A: U

Q: What about the “Inhibits IkBa phosphorylation” value (IKKb) of the same substance?
A: U

Q: And the Promotes neurite outgrowth (neurite outgrowth)?
A: U

Q: What about the Promotes neuron survival (neuron survival) of the same substance?
A: U

Q: What about the “Stimulates L1 production” value (L1) of the same substance?
A: U

Q: What about the “Inhibits tissue damage caused” value [2] of the same substance?
A: U

Q: And the “Protects tissue from UV radiation damage” value [2]?
A: U

Q: What about the “Restores impaired T-lymphocyte blastogenic response” value (T-lymphocyte) of the same substance?
A: U

Q: For “H-Leu-Lys-Lys-Thr-Glu-Thr-Gln-OH (H-LKKTETQ-OH) [Peptide 4A]”, which “Collagen type IV secretion” value [5] is on record?
A: stimulate

Q: What about the “Stimulates collagen IV” value [5] of the same substance?
A: P

Q: And the Secretion of elastin (human dermal fibroblasts [3]; dermal Fb, 1 μg/ml once/day, 24, 48, or 72 hours)?
A: stimulates

Q: What about the “Stimulates Elastin” value (human dermal fibroblasts [3]) of the same substance?
A: P

Q: And the “Inhibits NFkB translocation” value [6]?
A: P

Q: What about the Promotes neurite outgrowth (neurite outgrowth) of the same substance?
A: U

Q: What about the Promotes neuron survival (neuron survival) of the same substance?
A: U

Q: What about the “Stimulates L1 production” value (L1) of the same substance?
A: U

Q: What about the “Inhibits tissue damage caused” value [2] of the same substance?
A: U

Q: What about the “Protects tissue from UV radiation damage” value [2] of the same substance?
A: U

Q: Which results are given for “H-SDKPDMAEIEKFDKSKLKKTET-OH [Fragment Aa]”?
A: Protects from cytotoxicity (human dermal fibroblasts [7]): U; Inhibits apoptosis (human dermal Fb): U; Stimulates collagen IV [5]: U; Inhibits collagens (human dermal fibroblasts [1]): U; Stimulates Elastin (human dermal fibroblasts [3]): U; Suppresses inflammation [4]: U; Inhibits NFkB translocation [6]: U; Stimulates Migration (cell migration): U; Promotes neurite outgrowth (neurite outgrowth): U; Promotes neuron survival (neuron survival): U; Stimulates L1 production (L1): U; Inhibits tissue damage caused by UV radiation [2]: U; Protects tissue from UV radiation damage [2]: U

Q: For “H-SDKPDMAEIEKFDKSKLKKTETQ-OH [Fragment Ba]”, which Protects from cytotoxicity (human dermal fibroblasts [7]) is on record?
A: U

Q: What about the Inhibits apoptosis (human dermal Fb) of the same substance?
A: U

Q: What about the “Stimulates collagen IV” value [5] of the same substance?
A: U

Q: What about the Inhibits collagens (human dermal fibroblasts [1]) of the same substance?
A: U

Q: And the “Stimulates Elastin” value (human dermal fibroblasts [3])?
A: U

Q: And the Suppresses inflammation [4]?
A: U

Q: What about the “Inhibits NFkB translocation” value [6] of the same substance?
A: U

Q: And the “Stimulates Migration” value (cell migration)?
A: U

Q: What about the Promotes neurite outgrowth (neurite outgrowth) of the same substance?
A: U

Q: And the Promotes neuron survival (neuron survival)?
A: U

Q: What about the “Stimulates L1 production” value (L1) of the same substance?
A: U

Q: What about the “Inhibits tissue damage caused” value [2] of the same substance?
A: U

Q: And the “Protects tissue from UV radiation damage” value [2]?
A: U

Q: Which “Collagen type IV secretion” value [5] does the source give for “H-Ser-Asp-Lys-Pro-OH (H-SDKP-OH) [Peptide 2A]” here?
A: stimulate

Q: What about the “Stimulates collagen IV” value [5] of the same substance?
A: P

Q: And the Inhibits collagens (human dermal fibroblasts [1])?
A: P

Q: What about the Promotes neurite outgrowth (neurite outgrowth) of the same substance?
A: U

Q: What about the Promotes neuron survival (neuron survival) of the same substance?
A: U

Q: What about the “Stimulates L1 production” value (L1) of the same substance?
A: U

Q: And the “Inhibits tissue damage caused” value [2]?
A: U

Q: What about the “Protects tissue from UV radiation damage” value [2] of the same substance?
A: U
